Patent US7531565B2, “Imidazolidin-2-one derivatives as selective androgen receptor modulators (SARMS)” (Janssen Pharmaceutica, N.V., priority 2004, dated 2009)

How the values were obtained:
[1] = molecular target: T1, androgen receptor (Rattus norvegicus, UniProt P15207); experiment: Androgen receptor binding using rat ventral prostate cytosol; design: Male Sprague Dawley or Wistar rats (Charles River, 200-300 g) were used for each preparation; from tissue; host or cells: ventral prostate cytosol of castrated male Sprague Dawley or Wistar rats
T1 sequence (P15207 1-902): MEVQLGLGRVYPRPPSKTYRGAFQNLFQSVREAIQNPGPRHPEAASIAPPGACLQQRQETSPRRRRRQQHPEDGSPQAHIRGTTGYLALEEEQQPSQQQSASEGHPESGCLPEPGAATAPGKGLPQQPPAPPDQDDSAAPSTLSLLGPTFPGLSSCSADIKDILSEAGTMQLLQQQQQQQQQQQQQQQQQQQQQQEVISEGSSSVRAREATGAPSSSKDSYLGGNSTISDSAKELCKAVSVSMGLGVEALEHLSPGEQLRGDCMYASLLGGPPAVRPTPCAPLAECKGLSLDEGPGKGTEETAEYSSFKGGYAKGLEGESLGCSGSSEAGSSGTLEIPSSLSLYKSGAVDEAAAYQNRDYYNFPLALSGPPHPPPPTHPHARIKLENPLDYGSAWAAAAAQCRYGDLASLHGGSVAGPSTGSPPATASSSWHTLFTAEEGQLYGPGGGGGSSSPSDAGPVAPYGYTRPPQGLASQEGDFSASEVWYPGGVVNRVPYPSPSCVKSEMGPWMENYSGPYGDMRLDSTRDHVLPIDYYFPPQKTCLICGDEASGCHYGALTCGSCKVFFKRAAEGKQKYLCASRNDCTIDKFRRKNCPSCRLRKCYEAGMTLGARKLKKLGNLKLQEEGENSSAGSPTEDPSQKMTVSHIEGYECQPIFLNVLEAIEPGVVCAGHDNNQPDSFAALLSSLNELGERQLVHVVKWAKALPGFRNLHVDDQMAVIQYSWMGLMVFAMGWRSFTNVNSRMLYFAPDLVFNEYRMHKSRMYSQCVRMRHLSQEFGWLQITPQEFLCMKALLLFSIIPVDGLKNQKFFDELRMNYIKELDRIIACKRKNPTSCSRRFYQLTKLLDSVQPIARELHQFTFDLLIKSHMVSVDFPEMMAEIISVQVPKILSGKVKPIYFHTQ

[2] = molecular target: T1, androgen receptor; experiment: COS-7 whole-cell androgen receptor binding assay, adenovirus transduction; design: expressed in transfected cells; conditions: 3 μM (3000 nM); COS-7 cells, [3H]R1881, AdEasy+rAR
Protocol: COS-7 cells were plated in 96-well plates at 20,000 cells per well, in a solution of DMEM/F12 (GIBCO) containing 10% (v/v) charcoal-treated fetal bovine serum (Hyclone) and lacking phenol red. The cells were then incubated overnight at 37° C. in 5% (v/v) humidified CO2.
Test compound solutions were prepared by diluting the test compound in 100% (v/v) DMSO, if necessary. Each dilution yielded a solution which was 625× the final desired test concentration.
Next, 1 mL of DMEM/F12 lacking phenol red was pipetted into each of the wells of a 2-mL 96-well assay block. Then 4 μL of the 625× test compound dilutions were pipetted into each well of the assay block. The wells were carefully mixed by pipette.
In a 15 mL or 50 mL sterile centrifuge tube, a 2.5 nM dilution of tritiated methyl-trienolone in DMEM/F12 lacking phenol red ([^3H]R1881; Perkin-Elmer) was prepared.
In a 15 mL or 50 mL sterile centrifuge tube, a dilution in DMEM/F12 of the adenovirus AdEasy+rAR at a moi of 1:50 per well was prepared.
The medium was removed from the 96-well plates by inversion and the plates dried very briefly, inverted, on a sterile towel. As soon as possible after medium removal, 40 μL of the diluted test compound was added to each well, in duplicate. To each well was then added 40 μL of the 2.5 nM [^3H]R1881 and 20 μL of the diluted adenovirus. The plates were then incubated for 48 hours at 37° C. in 5% (v/v) humidified CO2.
The medium was removed from the above incubated plates by inversion and dried. Each well was then washed with 0.35 mL of 1×PBS. The PBS was then removed from the plates by inversion and the plates dried.
To each well was then added 50 μL of 0.5% (v/v) Triton X-100 (Sigma) in 1×PBS and the plates placed on a rotary shaker for 5 min. The contents of each well were then transferred to an OptiPlate-96 (Packard) scintillation plate. To each well was then added 0.2 mL of Microscint-20 (Packard) and the wells counted on a TopCount (Packard).
Percent inhibition was determined by testing dilutions of the test compound (usually duplicates of 10 μM) in the binding assay. Counts per well were measured and percents of inhibition determined. Androgen receptor binding IC50s were determined by testing serial dilutions of the test compound (usually duplicate ten half-log dilutions starting at 10 μM) in the binding assay. Counts per well were measured and IC50s determined by linear regression.
Representative compounds of the present invention were tested for binding to the androgen receptor according to the procedure described above with results as listed in Table C. Unless otherwise noted, COS binding % inhibition was determined using a concentration of 3000 nM. For compounds tested more than once, each result is listed separately in Table 3 below.

[3] = molecular target: T1, androgen receptor; experiment: L929 androgen receptor functional assay, adenovirus transduction; type: cell-based; design: expressed in transfected cells; conditions: 3 μM, L929 cells; for % Activition @ 3 μM: agonist testing (no R1881), luciferase
Protocol: L929 cells were plated in 96-well plates at 20,000 cells per well, in DMEM/F12 (GIBCO) containing 10% (v/v) charcoal-treated fetal bovine serum (Hyclone) and lacking phenol red. The plates were then incubated overnight at 37° C. in 5% (v/v) humidified CO2.
Test compound dilutions were prepared in 100% (v/v) DMSO, if necessary. Each dilution was made to 1250× the final desired assay concentration. First, 2 mL of DMEM/F12 lacking phenol red was pipetted into the wells of a 2-mL 96-well assay block. Next, 4 μL of the 1250× test compound dilutions were pipetted into each well of the assay block. The mixtures within the well were then carefully mixed by pipette.
In a 15 mL or 50 mL sterile centrifuge tube, a 2.5 nM (2.5×) dilution of R1881 (methyl-trienolone) in DMEM/F12 lacking phenol red was prepared. In a second 15 mL or 50 mL centrifuge tube a solution containing an equal volume of DMEM to the first and an equal volume of 100% (v/v) DMSO to the volume of R1881 used in the first tube was prepared.
In a 15 mL or 50 mL sterile centrifuge tube, a dilution in DMEM/F12 of the adenovirus AdEasy+rAR at an moi of 1:500 per well was prepared. The medium was removed from the 96-well plates by inversion and dried, inverted, very briefly. As soon as possible after medium removal, 40 μL of the diluted unlabeled test compound was added to each well, in duplicate. To each well designated for antagonist testing was added 40 μL of the 2.5 nM R1881 dilution to the wells for antagonist testing. To each well designated for agonist testing was added 40 μL of the DMSO dilution. Then 20 μL of the diluted adenovirus were added to all wells. The plates were incubated for 48 hours at 37° C. in 5% (v/v) humidified CO2.
To each well was added 100 μL of Steady-Glo luciferase assay substrate (Promega) and the plates were placed on a rotary shaker for 1 min. The plates were then incubated at room temperature in the dark for one hour. The contents of each well were then transferred to a white microtiter plate (Packard) and read on a Luminoskan Ascent (Thermo Lab Systems).
L929 AR percent activity was determined by testing dilutions of the test compound using a concentration of 3000 nM unless otherwise noted. L929 percent inhibition was determined by testing dilutions of the test compound using a concentration of 3000 nM. EC50s and IC50s were determined by testing serial dilutions of the test compound (usually duplicate ten half-log dilutions starting at 10 μM). Luciferase activity per well were measured and EC50s and IC50s determined by linear regression.
Representative compounds of the present invention were tested for functional activity at the androgen receptor according to the procedure described above with results as listed in Table 4.

[4] = tested on: castrated male Sprague Dawley rats; experiment: Ventral prostate and seminal vesicle weight in vivo assay; design: species or system rat; key: A test compound was said to be “active” if the non weight adjusted prostate weight was ≦60 mg or ≧84 mg; they are listed herein as “inactive” as they did not meet the specified criteria defined above; conditions: immature castrated rats, once daily for five days, usually orally 40 mg/kg, with testosterone propionate 2 mg/kg s.c.
Protocol: Immature (approximately 50 g) castrated male Sprague Dawley rats (Charles River) were treated once daily for five days with test compound (usually given orally at 40 mg/kg in a volume of 0.3 mL, in 30% cyclodextrin or 0.5% methylcellulose vehicle) and with testosterone propionate (given subcutaneously by injection at the nape of the neck at 2 mg/kg, in a volume of 0.1 mL in sesame oil). On the sixth day, the rats were euthanized by asphyxiation in carbon dioxide. Ventral prosatates and seminal vesicles were removed and their wet weights determined. Test compound activity was determined as the percent inhibition of testosterone-enhanced tissue weights, with a vehicle-treated control group set to zero percent and a testosterone alone-treated control group set to 100%.
A test compound was said to be “active” if the non weight adjusted prostate weight was ≦60 mg or ≧84 mg.

[5] = antagonist testing with R1881, luciferase

## CC1(C(=O)Nc2ccc(C#N)c(C(F)(F)F)c2)CN(Cc2ccc(F)cc2)C(=O)N1 (racemic) [Compound 6i]
[1]
  % Inhibition @ 3 μM: 4%
[2]
  % Inhibition @ 3 μM: 28%
[3]
  % Activition @ 3 μM: 0%
[3]; [5]
  % Inhibition @ 3 μM: 76%

## CC1(C(=O)O)CN(c2ccc(C#N)c(C(F)(F)F)c2)C(=O)N1 (racemic) [Compound 5e]
[1]
  % Inhibition @ 3 μM: −67%
[3]
  % Activition @ 3 μM: 0%
[3]; [5]
  % Inhibition @ 3 μM: 30%
[4]
  active / inactive by non weight adjusted prostate weight: active

## COC(=O)C1(C)CN(c2ccc(F)cc2)C(=O)N1 (stereo not shown) [Compound 4a, 1-(4-Fluoro-phenyl)-4-methyl-2-oxo-imidazolidine-4-carboxylic acid methyl ester]
[1]
  inhibition at 3 µM: -57%
[3]
  % Activition @ 3 μM: 0%
[3]; antagonist testing with R1881, luciferase, read-out: % Inhibition @ 3 μM
  inhibition at 3 µM: -20%
[4]
  active / inactive by non weight adjusted prostate weight: inactive

## CC1(C(=O)Nc2ccc(Cl)c(C(F)(F)F)c2)CN(c2ccc(F)cc2)C(=O)N1 (racemic) [Compound 6f]
[1]
  % Inhibition @ 3 μM: 66%
[2]
  % Inhibition @ 3 μM: 35%
[3]
  % Activition @ 3 μM: 3%
[3]; [5]
  % Inhibition @ 3 μM: 85%
